# Data as given in US8097588B2, “Trophinin-binding peptides and uses thereof” (Sanford-Burnham Medical Research Institute, priority 2007, dated 2012).
# Columns and labels:
# [1] = system: HT-H cells; assay: Western blot for tyrosine phosphorylated proteins, HT-H cells; assay type: cell-based, human; conditions: serum-depleted medium, 30 min
# Protocol: (§1) Tyrosine phosphorylated proteins were detected by anti-phosphotyrosine antibody (4G10, mouse IgG). HT-H cells and A431 cells were grown in 10 cm plates to semi confluency, incubated in phosphorylation medium with GWRQ peptide (GWRQ-MAP; 2 μg/ml) at 4° C. for 15 min, and stimulated for phosphorylation at 37° C. for 0 min 120 min. Control HT-H cells were treated in the same manner without GWRQ peptide. HT-H cells were harvested using rubber policemen, collected by centrifugation, and washed once with cold PBS. Cells were lysed with 0.5% NP-40 in PBS containing phosphatase inhibitors (30 mM NaF, 40 mM β-glycerophosphate, 20 mM Na pyrophosphate, and 1 mM Na2VO4) and protease inhibitors (2 mM EGTA, 5 mM EDTA, 1 mM phenylmethylsulfonylfluoride, 3 mM benzamidine, 5 μM pepstatin A, 10 μM leupeptin). Western blot was carried out as described above.
# (§2) Screening of phosphorylated proteins by phospho specific antibodies was carried out by Kinexus, Vancouver, B. C., Canada. HT-H cells and A431 cells grown as monolayers were serum starved by culturing in medium lacking FCS for 2 days. Cells were incubated in phosphorylation medium without FCS and then stimulated at 37° C. for 0 min˜120 min in medium containing recombinant human EGF (20 ng/ml) with or without GWRQ peptide.
# [2] = system: A431 cells; assay: Western blot for tyrosine phosphorylated proteins, A431 cells; assay type: cell-based; conditions: serum-depleted medium, 30 min
# Protocol: as §1, §2
# [3] = system: ErbB4; assay: Tyrosine kinase activity assay of anti-ErbB4 immunoprecipitates, HT-H cells; assay type: cell-based, human; conditions: GWRQ peptide 5 μg/ml, EGF 20 ng/ml
# Protocol: (§3) A431 cells and HT-H cells were cultured in 10 cm plate to sub-confluency.
# (§4) Medium was replaced with DME without FCS, and cells were cultured for 3 days without FCS by exchanging medium every day. To HT-H or A431 monolayer kept at 4° C., Na3VO4 was added to 1 mM. GWRQ peptide (5 μg/ml) and/or recombinant human EGF (20 ng/ml) was added to each plate, and left at 4° C. for 30 min. Cells were harvested by rubber policeman, and washed with cold PBS. Cells were lysed in PBS containing 1% NP-40, and cell lysate was subjected to immunoprecipitation with 20 & I protein A beads pre-coated with control IgG or with rabbit anti-ErbB4 antibody (Sant Cruz Biotechnology). Immunoprecipitates were washed with cold PBS and suspended in cold PBS. A polyvinylchloride ELISA plate (Falcon) was coated with tyrosine kinase substrate poly EY (Sigma) in PBS (1 μg/100 μl) at 4° C. for 20 hours. After washing the plate, each immunoprecipitate as triplicate was added to each well in 100 & I kinase assay buffer (50 mM Hepes buffer, pH 7.4, 20 mM MgCl2, 1 mM MnCl2 2 mM Na3VO4, and 0.4 mM ATP), and reacted at room temperature for 30 min. […] After washing wells with TBS, peroxidase substrate ABTS (Pierce) was added and developed color was read in an ELISA reader at 405 mm.
# [4] = system: ErbB4; assay: Tyrosine kinase activity assay of anti-ErbB4 immunoprecipitates, A431 cells; assay type: cell-based; conditions: GWRQ peptide 5 μg/ml, EGF 20 ng/ml
# Protocol: as §3, §4
# [5] = system: HT-H cells; assay: Activation of HT-H cells, monomeric versus branched peptide; assay type: cell-based, human
Substance,EGFR / tyrosine phosphorylation in HT-H cells [1],EGFR / tyrosine phosphorylation in A431 cells [2],ErbB4 kinase activity in HT-H cells [3],ErbB4 kinase activity in A431 cells [4],concentration needed to activate HT-H cells [5] [µg/mL],efficiency relative to octameric branched GWRQ peptide (GWRQ-MAP) ([5]; less efficiency)
EGF: recombinant human EGF (NSDSECPLSHDGYCLHDGVCMYIEALDKYACNCVVGYIGERCQYRDLKWWELR),no detectable EGFR phosphorylation,caused EGFR phosphorylation,activated,activated,–,–
monomeric GWRQ peptide: a single linear GWRQ peptide,–,–,–,–,200 to 500,about 100 times
